# ± gives the standard deviation of the averaged measurements.
# Tests used:
# Experiment in all cases: normalised growth rate inhibition (GR value) relative to DMSO control (GR (1 = untreated growth, 0 = cytostasis, <0 = cytotoxic)); higher = less growth inhibition
# Settings in all cases: 72 h
# [1] = system: HS578T
# Method: (§1)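 Breast cancer cell lines (BT-20, Hs 578T, MCF 10A, MCF7, MDA-MB-231, SK-BR-3) were plated in 384-well plates and treated 24 h later with drugs at six concentrations (0.04-10 µM). Viable cells were counted by Hoechst/dead-cell-stain imaging at 0 and 72 h. Counts were normalised to DMSO controls on the same plate to give the relative cell count and the growth-rate inhibition (GR) value; technical plate triplicates were averaged for each biological replicate.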
# [2] = system: MCF7
# Method: as §1
# [3] = system: BT20
# Method: as §1
# [4] = system: MCF10A
# Method: as §1
# [5] = system: SKBR3
# Method: as §1
# [6] = system: MDAMB231
# Method: as §1
SMILES,normalised growth rate inhibition ([1]; 0.04 µM),normalised growth rate inhibition ([1]; 0.12 µM),normalised growth rate inhibition ([1]; 0.37 µM),normalised growth rate inhibition ([1]; 1.11 µM),normalised growth rate inhibition ([1]; 3.33 µM),normalised growth rate inhibition ([1]; 10 µM),normalised growth rate inhibition ([2]; 0.04 µM),normalised growth rate inhibition ([2]; 0.12 µM),normalised growth rate inhibition ([2]; 0.37 µM),normalised growth rate inhibition ([2]; 1.11 µM),normalised growth rate inhibition ([2]; 3.33 µM),normalised growth rate inhibition ([2]; 10 µM),normalised growth rate inhibition ([3]; 0.04 µM),normalised growth rate inhibition ([3]; 0.12 µM),normalised growth rate inhibition ([3]; 0.37 µM),normalised growth rate inhibition ([3]; 1.11 µM),normalised growth rate inhibition ([3]; 3.33 µM),normalised growth rate inhibition ([3]; 10 µM),normalised growth rate inhibition ([4]; 0.04 µM),normalised growth rate inhibition ([4]; 0.12 µM),normalised growth rate inhibition ([4]; 0.37 µM),normalised growth rate inhibition ([4]; 1.11 µM),normalised growth rate inhibition ([4]; 3.33 µM),normalised growth rate inhibition ([4]; 10 µM),normalised growth rate inhibition ([5]; 0.04 µM),normalised growth rate inhibition ([5]; 0.12 µM),normalised growth rate inhibition ([5]; 0.37 µM),normalised growth rate inhibition ([5]; 1.11 µM),normalised growth rate inhibition ([5]; 3.33 µM),normalised growth rate inhibition ([5]; 10 µM),normalised growth rate inhibition ([6]; 0.04 µM),normalised growth rate inhibition ([6]; 0.12 µM),normalised growth rate inhibition ([6]; 0.37 µM),normalised growth rate inhibition ([6]; 1.11 µM),normalised growth rate inhibition ([6]; 3.33 µM),normalised growth rate inhibition ([6]; 10 µM)
FC(F)c1nc2ccccc2n1-c1nc(N2CCOCC2)nc(N2CCOCC2)n1 [ZSTK-474],0.806 ± 0.017,0.663 ± 0.032,0.522 ± 0.088,0.394 ± 0.12,0.289 ± 0.1,0.148 ± 0.11,0.664 ± 0.2,0.37 ± 0.18,0.138 ± 0.048,0.0423 ± 0.065,0.00162 ± 0.071,-0.0168 ± 0.11,0.971 ± 0.029,0.855 ± 0.16,0.615 ± 0.27,0.211 ± 0.17,0.0764 ± 0.14,-0.0662 ± 0.025,0.954 ± 0.065,0.842 ± 0.12,0.698 ± 0.16,0.472 ± 0.083,0.296 ± 0.049,0.179 ± 0.069,0.783 ± 0.087,0.46 ± 0.06,0.161 ± 0.1,0.0252 ± 0.12,-0.0251 ± 0.15,-0.031 ± 0.13,0.881 ± 0.062,0.828 ± 0.055,0.728 ± 0.025,0.646 ± 0.061,0.511 ± 0.077,0.386 ± 0.11
CC1=C(CO)C(=O)O[C@@H]([C@@H](C)[C@H]2CC[C@H]3[C@@H]4C[C@H]5O[C@]56[C@@H](O)C=CC(=O)[C@]6(C)[C@H]4CC[C@]23C)C1 [withaferin-a],1.01 ± 0.018,1.01 ± 0.02,0.944 ± 0.077,-0.0869 ± 0.077,-0.085 ± 0.037,-0.287 ± 0.077,1.01 ± 0.055,0.907 ± 0.091,0.283 ± 0.09,0.0882 ± 0.037,-0.196 ± 0.13,-0.141 ± 0.099,1.04 ± 0.038,0.99 ± 0.083,0.714 ± 0.13,-0.105 ± 0.13,-0.345 ± 0.065,-0.283 ± 0.026,0.9993 ± 0.0071,0.984 ± 0.025,0.861 ± 0.05,-0.0779 ± 0.054,-0.193 ± 0.15,-0.244 ± 0.19,1.04 ± 0.063,0.892 ± 0.096,0.174 ± 0.15,-0.104 ± 0.11,-0.3 ± 0.086,-0.278 ± 0.12,1.04 ± 0.053,1 ± 0.05,0.614 ± 0.16,-0.0338 ± 0.067,-0.143 ± 0.056,-0.336 ± 0.097
CN(c1ncccc1CNc1nc(Nc2ccc3c(c2)CC(=O)N3)ncc1C(F)(F)F)S(C)(=O)=O,0.897 ± 0.02,0.812 ± 0.035,0.735 ± 0.034,0.62 ± 0.042,0.438 ± 0.048,-0.0953 ± 0.11,0.8557 ± 0.0043,0.759 ± 0.054,0.529 ± 0.066,0.251 ± 0.094,-0.0743 ± 0.044,-0.309 ± 0.069,0.921 ± 0.011,0.879 ± 0.031,0.815 ± 0.069,0.583 ± 0.13,0.201 ± 0.15,-0.212 ± 0.071,0.894 ± 0.02,0.814 ± 0.017,0.66 ± 0.014,0.4 ± 0.098,0.0782 ± 0.016,-0.191 ± 0.2,1.05 ± 0.051,0.984 ± 0.095,0.704 ± 0.099,0.198 ± 0.053,-0.0632 ± 0.084,-0.254 ± 0.25,0.897 ± 0.027,0.825 ± 0.081,0.741 ± 0.075,0.577 ± 0.14,0.166 ± 0.14,-0.196 ± 0.22
Cc1ccc(F)c(NC(=O)Nc2ccc(-c3cccc4[nH]nc(N)c34)cc2)c1 [linifanib],0.995 ± 0.011,0.979 ± 0.011,0.971 ± 0.025,0.969 ± 0.015,0.9497 ± 0.0069,0.701 ± 0.13,1.07 ± 0.12,0.996 ± 0.14,1.01 ± 0.12,0.939 ± 0.079,0.874 ± 0.061,0.0601 ± 0.092,1.09 ± 0.014,1.07 ± 0.039,1.07 ± 0.032,1.08 ± 0.026,1.03 ± 0.011,0.544 ± 0.37,1.039 ± 0.0077,1.032 ± 0.0048,1.02 ± 0.012,1.02 ± 0.014,0.994 ± 0.029,0.716 ± 0.24,1.11 ± 0.046,1.08 ± 0.025,1.11 ± 0.043,1.1 ± 0.078,1.09 ± 0.078,0.232 ± 0.072,1.08 ± 0.014,1.09 ± 0.03,1.08 ± 0.045,1.07 ± 0.053,1.06 ± 0.045,0.192 ± 0.29

# Source: the supplement of paper PMC5662764
